Consider 1 compound from ChEMBL document CHEMBL5036336, “Structure-Guided Optimization Provides a Series of TTK Protein Inhibitors with Potent Antitumor Activity” (J Med Chem, 2021).

The pIC50 is the negative decadic logarithm of the IC50, by convention in mol/L. By inhibition is commonly meant the change of the read-out against control, counted positive when it falls. By clearance is commonly meant a measure of how efficiently the substance is removed, as volume per time. Usually MRT stands for the average time that molecules of a dose stay in the body. The term AUC denotes the area under the concentration-time curve, a measure of exposure. Low readings indicate low exposure, high ones high exposure.

pIC50: −log10 of the molar value. The source made the active and inactive calls. The rule behind the calls is not given here. A value given as a limit tells only on which side of the number the result lay.

Series [1] addresses T1, Serine/threonine-protein kinase Chk2 (Homo sapiens, UniProt O96017). The series is described as follows: Inhibition of CHK2 (unknown origin) by Z-lyte assay.
The target of series [2] is Mitogen-activated protein kinase 8 (Homo sapiens, UniProt P45983). The series is described as follows: Inhibition of JNK1 (unknown origin) by Z-lyte assay.
The target of series [3] is T2, MAP kinase-activated protein kinase 3 (Homo sapiens, UniProt Q16644). The series is described as follows: Inhibition of MAPKAPK3 (unknown origin) at 3 uM by Z-lyte assay relative to control.
Target sequence in this assay (Q16644 whole entry, looked up): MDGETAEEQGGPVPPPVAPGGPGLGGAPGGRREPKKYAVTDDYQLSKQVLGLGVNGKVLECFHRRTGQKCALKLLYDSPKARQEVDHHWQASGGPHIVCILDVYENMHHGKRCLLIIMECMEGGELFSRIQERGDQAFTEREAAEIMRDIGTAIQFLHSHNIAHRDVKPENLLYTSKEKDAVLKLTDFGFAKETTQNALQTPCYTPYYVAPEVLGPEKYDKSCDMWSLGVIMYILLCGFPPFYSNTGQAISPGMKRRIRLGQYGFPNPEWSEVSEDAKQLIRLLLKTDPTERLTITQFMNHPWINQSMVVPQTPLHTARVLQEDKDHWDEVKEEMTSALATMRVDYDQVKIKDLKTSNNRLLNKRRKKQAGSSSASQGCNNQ
Series [4] addresses Muscarinic acetylcholine receptor M3 (Homo sapiens) (UniProt P20309). The experiment in a line: Inhibition of muscarinic M3 receptor (unknown origin) at 10 uM relative to control.
The target of series [5] is Proto-oncogene tyrosine-protein kinase Src (Homo sapiens, UniProt P12931). The experiment in a line: Inhibition of SRC N1 (unknown origin) by Z-lyte assay.
For series [6], the species on record is Homo sapiens. The experiment in a line: Selectivity ratio of IC50 for inhibition of JNK2 (unknown origin) to IC50 for inhibition of TTK (unknown origin).
Series [7] has as its target T2, MAP kinase-activated protein kinase 3. The series is described as follows: Inhibition of MAPKAPK3 (unknown origin) by Z-lyte assay.
Target sequence in this assay (Q16644 whole entry): as the sequence (Q16644 whole entry, looked up) above
For series [8], the target named is T1, Serine/threonine-protein kinase Chk2. The series is described as follows: Inhibition of CHK2 (unknown origin) at 3 uM by Z-lyte assay relative to control.
Series [9] relates to CAL-51. The experiment in a line: Antitumor activity against human TNBC PDX-CAL-51 cells xenografted in CB17-SCID mouse assessed as tumor growth inhibition at 25 to 80 mg/kg, iv administered once per week for 3 weeks. The format is functional, organism-based. As to conditions: dose 25-80 mg/kg. A general note: A xenograft is tissue or cells of one species grown in another, often human tumour cells in immunodeficient mice.

A short description of series [10]: Plasma protein binding in mouse. The format is ADME, cell-free. As to conditions: read-out: PPB.
Series [11] in a line: Volume of distribution at steady state in rat at 2 mg/kg, iv. The format is ADME, organism-based. As to conditions: in vivo, read-out: Vdss.
Series [12] can be described thus: Clearance in rat at 2 mg/kg, iv. Format: ADME, organism-based. The settings on record: in vivo.
Series [13] in a line: Mean residence time in rat at 2 mg/kg, iv. The format is ADME, organism-based. As to conditions: in vivo.
For series [14], the target named is Muscarinic acetylcholine receptor M1 (Homo sapiens) (UniProt P11229). The series is described as follows: Inhibition of muscarinic M1 receptor (unknown origin) at 10 uM relative to control.
A short description of series [15]: AUC in rat at 2 mg/kg, iv. The settings on record: in vivo. The format is ADME, organism-based. Details: dose 2 mg/kg.
The species named for series [16] is Homo sapiens. The experiment in a line: Selectivity ratio of IC50 for inhibition of LRRK2 G2019S mutant (unknown origin) to IC50 for inhibition of TTK (unknown origin).
The nature of series [17]: Toxicity in CB17-SCID mouse xenografted with human CAL-51 cells assessed as body weight loss at 30 to 50 mg/kg, iv administered once per week for 16 days. The format is organism-based. The settings on record: in vivo, 384 h, dose 30-50 mg/kg, time 16 day.
A short description of series [18]: Mean residence time in mouse at 2 mg/kg, iv. Format: ADME, organism-based. As to conditions: in vivo.
Series [19] concerns the target T3, Dual specificity protein kinase TTK (Homo sapiens, UniProt P33981).
T3 sequence (P33981 whole entry): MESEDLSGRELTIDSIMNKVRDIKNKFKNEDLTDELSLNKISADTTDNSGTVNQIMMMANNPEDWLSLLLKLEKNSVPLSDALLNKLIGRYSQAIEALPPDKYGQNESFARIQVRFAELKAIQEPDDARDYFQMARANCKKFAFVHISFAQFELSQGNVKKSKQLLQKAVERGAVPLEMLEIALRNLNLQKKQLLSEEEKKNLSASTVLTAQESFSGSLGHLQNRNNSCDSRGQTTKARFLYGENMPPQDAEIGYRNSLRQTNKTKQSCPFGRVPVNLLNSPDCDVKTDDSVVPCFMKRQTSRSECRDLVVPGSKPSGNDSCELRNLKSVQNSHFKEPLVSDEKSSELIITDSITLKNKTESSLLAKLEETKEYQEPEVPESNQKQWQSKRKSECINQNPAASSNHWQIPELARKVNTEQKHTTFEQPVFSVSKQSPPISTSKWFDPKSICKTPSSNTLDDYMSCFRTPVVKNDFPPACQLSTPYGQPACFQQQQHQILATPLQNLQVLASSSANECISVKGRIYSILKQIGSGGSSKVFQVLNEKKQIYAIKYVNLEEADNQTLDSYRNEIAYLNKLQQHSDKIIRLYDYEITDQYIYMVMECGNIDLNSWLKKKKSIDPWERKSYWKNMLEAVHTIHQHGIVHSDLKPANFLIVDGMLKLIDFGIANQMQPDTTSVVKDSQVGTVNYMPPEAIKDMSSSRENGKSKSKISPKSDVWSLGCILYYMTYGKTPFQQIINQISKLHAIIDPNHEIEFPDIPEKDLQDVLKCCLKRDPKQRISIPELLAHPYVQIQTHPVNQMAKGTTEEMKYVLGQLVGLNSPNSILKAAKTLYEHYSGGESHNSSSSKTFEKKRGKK
The series is described as follows: Displacement of kinase tracer 236 from TTK (unknown origin) by LanthaScreen Eu kinase binding assay. For orientation: Time-resolved FRET reads energy transfer from a long-lived donor to a nearby acceptor.

The next series has as its target Cytochrome P450 3A4 (Homo sapiens, UniProt P08684). The experiment in a line: Inhibition of CYP3A4 in human liver microsomes using […] as substrate incubated for 5 mins in presence of NADPH by LC-MS/MS analysis. Format: ADME. On the technique in general: Liver microsomes are vesicles of endoplasmic reticulum, rich in cytochrome P450 enzymes.
For series [20], the species on record is Homo sapiens. The series is described as follows: Selectivity ratio of IC50 for inhibition of TSSK2 (unknown origin) to IC50 for inhibition of TTK (unknown origin).
Series [21] deals with CAL-51. The series is described as follows: Antiproliferative activity against human CAL-51 cells assessed as inhibition of cell proliferation measured after 3 days by Cell Titer-Glo luminescence based assay. Format: functional. As to conditions: CAL-51, 72 h.

T1 sequence (O96017 whole entry): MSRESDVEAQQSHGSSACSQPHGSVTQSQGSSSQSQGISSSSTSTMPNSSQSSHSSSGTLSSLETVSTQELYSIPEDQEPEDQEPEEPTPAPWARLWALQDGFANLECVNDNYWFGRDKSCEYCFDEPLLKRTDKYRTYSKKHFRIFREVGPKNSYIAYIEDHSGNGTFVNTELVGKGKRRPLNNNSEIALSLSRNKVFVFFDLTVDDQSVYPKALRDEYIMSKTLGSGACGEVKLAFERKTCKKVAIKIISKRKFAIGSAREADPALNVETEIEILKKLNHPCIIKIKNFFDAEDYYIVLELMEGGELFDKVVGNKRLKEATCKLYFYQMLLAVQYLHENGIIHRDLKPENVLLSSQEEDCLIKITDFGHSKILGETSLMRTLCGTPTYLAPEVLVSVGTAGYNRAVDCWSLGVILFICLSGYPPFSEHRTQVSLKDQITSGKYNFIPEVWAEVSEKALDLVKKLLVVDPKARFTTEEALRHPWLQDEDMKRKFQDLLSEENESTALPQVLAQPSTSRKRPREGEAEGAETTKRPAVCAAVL
Chain of Cytochrome P450 3A4 (P08684 whole entry): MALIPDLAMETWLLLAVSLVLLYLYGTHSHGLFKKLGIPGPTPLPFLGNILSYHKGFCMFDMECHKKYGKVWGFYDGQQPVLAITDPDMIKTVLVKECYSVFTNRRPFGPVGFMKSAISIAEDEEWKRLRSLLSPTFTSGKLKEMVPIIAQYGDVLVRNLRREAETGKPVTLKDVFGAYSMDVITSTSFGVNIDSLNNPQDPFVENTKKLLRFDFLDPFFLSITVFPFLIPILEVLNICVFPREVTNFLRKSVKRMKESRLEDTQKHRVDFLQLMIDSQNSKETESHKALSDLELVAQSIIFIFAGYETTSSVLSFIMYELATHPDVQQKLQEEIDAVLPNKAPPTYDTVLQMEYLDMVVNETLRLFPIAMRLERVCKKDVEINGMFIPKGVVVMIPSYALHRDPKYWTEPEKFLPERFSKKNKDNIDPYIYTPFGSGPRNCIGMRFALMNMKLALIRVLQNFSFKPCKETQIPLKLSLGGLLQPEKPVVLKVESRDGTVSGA
Chain of Proto-oncogene tyrosine-protein kinase Src (P12931 2-536 limits assumed): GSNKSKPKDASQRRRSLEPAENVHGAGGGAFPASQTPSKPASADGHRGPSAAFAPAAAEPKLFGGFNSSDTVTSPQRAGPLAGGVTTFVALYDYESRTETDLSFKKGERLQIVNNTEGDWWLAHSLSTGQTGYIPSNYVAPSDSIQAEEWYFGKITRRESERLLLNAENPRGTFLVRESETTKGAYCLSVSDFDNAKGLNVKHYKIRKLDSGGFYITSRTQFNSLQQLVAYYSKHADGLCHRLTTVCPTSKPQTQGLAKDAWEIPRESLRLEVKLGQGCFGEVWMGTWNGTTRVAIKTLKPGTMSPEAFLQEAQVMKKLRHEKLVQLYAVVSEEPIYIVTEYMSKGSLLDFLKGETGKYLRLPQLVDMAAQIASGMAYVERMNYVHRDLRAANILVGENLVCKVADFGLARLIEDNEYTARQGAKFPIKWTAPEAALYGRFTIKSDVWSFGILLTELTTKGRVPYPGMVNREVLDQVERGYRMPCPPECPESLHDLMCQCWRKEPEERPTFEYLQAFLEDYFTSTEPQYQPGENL
Chain of Mitogen-activated protein kinase 8 (P45983 whole entry): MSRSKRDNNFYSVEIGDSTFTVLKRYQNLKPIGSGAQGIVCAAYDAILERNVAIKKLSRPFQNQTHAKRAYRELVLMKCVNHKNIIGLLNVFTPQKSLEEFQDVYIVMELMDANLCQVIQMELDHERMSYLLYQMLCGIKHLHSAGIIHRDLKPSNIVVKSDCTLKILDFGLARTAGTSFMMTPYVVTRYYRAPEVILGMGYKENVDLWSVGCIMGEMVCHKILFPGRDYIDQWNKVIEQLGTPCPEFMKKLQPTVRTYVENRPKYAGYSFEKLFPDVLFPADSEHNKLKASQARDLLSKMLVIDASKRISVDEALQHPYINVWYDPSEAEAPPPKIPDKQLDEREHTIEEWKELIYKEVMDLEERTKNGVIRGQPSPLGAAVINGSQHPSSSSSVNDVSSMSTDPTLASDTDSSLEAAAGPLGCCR
Chain of Muscarinic acetylcholine receptor M1 (Homo sapiens) (P11229 whole entry): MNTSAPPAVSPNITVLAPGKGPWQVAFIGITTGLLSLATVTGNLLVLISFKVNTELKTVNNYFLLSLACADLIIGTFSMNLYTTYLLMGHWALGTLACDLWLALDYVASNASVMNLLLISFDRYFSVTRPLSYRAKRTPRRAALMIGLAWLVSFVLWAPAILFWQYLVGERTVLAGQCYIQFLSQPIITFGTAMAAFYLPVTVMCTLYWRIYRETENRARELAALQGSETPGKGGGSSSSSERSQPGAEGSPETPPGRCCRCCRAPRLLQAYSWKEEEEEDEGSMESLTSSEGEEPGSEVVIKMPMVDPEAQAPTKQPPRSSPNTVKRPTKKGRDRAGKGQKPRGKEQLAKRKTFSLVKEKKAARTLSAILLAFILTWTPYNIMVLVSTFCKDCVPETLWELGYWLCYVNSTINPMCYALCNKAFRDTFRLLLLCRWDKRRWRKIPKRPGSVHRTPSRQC
Chain of Muscarinic acetylcholine receptor M3 (Homo sapiens) (P20309 whole entry, looked up): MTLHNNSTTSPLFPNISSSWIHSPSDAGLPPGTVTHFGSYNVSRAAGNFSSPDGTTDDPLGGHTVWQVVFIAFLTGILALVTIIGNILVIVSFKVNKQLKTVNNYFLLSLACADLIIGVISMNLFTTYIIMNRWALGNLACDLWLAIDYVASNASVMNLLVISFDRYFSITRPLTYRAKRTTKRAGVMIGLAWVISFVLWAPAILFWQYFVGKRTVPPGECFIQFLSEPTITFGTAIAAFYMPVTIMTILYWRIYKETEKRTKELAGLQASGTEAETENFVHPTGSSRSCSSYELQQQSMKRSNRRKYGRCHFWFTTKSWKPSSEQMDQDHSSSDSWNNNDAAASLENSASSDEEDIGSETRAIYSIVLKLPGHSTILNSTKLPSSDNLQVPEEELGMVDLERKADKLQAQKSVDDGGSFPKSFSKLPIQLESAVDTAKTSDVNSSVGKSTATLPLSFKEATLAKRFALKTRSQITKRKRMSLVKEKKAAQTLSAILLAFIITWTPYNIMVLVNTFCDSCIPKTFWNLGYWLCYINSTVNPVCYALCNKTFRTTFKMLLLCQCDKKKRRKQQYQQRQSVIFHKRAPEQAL

Consider `CCc1cccc(CC)c1N1CCn2cc(-c3nc(Nc4ccc(N5CCC(C(=O)N6CC7(CN(C)C7)C6)CC5)cc4OC)nc4[nH]ccc34)cc2C1=O`, for which the pIC50 in [1] was 6.26; in [2], 6.72; in series [5] it was 5.89; in series [7], 5.83; in series [19], 8.52; on Cytochrome P450 3A4, below 5.30. Also, the negative-log IC50 (pIC50) in the series with CAL-51 [21] is 7.80. For the same compound, the inhibition in series [3] was above 80%; in series [4], 80%; in series [8], above 80%; in series [14], 80%. Besides, the Ratio IC50 in the series filed under Homo sapiens [6] was 201; in the series listed under Homo sapiens [16] it was 76.3; in the series filed under Homo sapiens [20] it was 315. Besides, the outcome with CAL-51 [9] was Active. Also, the fraction unbound in [10] is below 0.01. In addition, the Vd in [11] was found to be 0.66 L/kg. This compound also returned a clearance in series [12] of 2.8 mL/min/kg. For the same compound, the MRT was determined as 4.3 h in [13] and 0.98 h in [18]. Moreover, in [15], the AUC came to 18.2 µM·h. Besides, in series [17], the Activity result was “Non-Toxic”.
